According to patent US20020076412A1, “METHODS FOR MODULATING THE IMMUNE SYSTEM” (priority 1987, published 2002):
Where “and” joins values, the source holds several entries; their conditions need not be identical. Identical values can stand only once. Entries after “also recorded” stand apart in the source; their conditions may differ.

Legend:
[1] = system: EAE (RAT); test: Ability of peptide mixed in CFA to cause EAE; format: in vivo; conditions: rats with EAE / rats immunized with the peptide alone in CFA
Description: (§1) The peptides were tested for their ability to cause EAE when mixed in CFA. […] It was seen that Ala4, Ala6, Ala7, and Ala8 are poor binders to I-E, implying that these residues 4F,6N,7I, and 8V are critical in MHC binding. […] Despite their inability to bind well to I-E, peptides ala6 and ala8 block the development of EAE when mixed with native peptide in a 5:1 molar ratio with CFA (0/6 sick with native plus ala6, 2/6 with native plus ala8, compared to 11/12 with native peptide alone). These competitor peptides Ala6 and Ala8, though poor I-E binders can apparently compete with native peptide and antagonize the T-cell receptor.

[2] = biological target: I-E; test: MHC I-E binding of substituted MBP 87-99 peptides; set-up: species or system rat; conditions: for IC50: read-out: (M*C) IC50 I-E Binding
Source text: A set of substituted peptides based on the sequence VHFFKNIVTPRT (Seq. ID No. 39), which is identical in rats, mice and human myelin basic protein (MBP), and corresponds to the I-E restricted epitope MBP 87-99 in the rat was produced. The peptides are shown in Table 1 (Seq. ID Nos. 39 to 52 respectively) MHC binding was measure say described in Smilek et al, 1991, Gautam et al 1992a&b.

[3] = system: 87-99 T-cell line; test: Proliferation of encephalitogenic T-cell line raised against native peptide (87-99); format: cell-based, rat; conditions: stimulation of T-cell line raised against native 87-99, grades negative to 4+
Description: As noted above, candidate peptide analogues are first tested for their property of causing or inhibiting proliferation of T-cell lines. In the proliferation assay, MBP reactive T-cell lines may be used as target cells. T-cell lines are established from lymph nodes taken from rats injected with MBP. Lymph node cells are isolated and cultured for 5 to 8 days with MBP and IL-2 as a source of T-cell growth factors. Viable cells are recovered and a second round of stimulation is performed with MBP and irradiated splenocytes as a source of growth factors. After 5 to 6 passages in this manner, the proliferative potential of the cell lines are determined. MBP-reactive lines are used in the proliferation assay. In this assay, T-cell lines are cultured for three days with various concentrations of peptide analogues and irradiated, autologous splenocytes. After three days, 0.5-1.0 μCi of [^3H]-thymidine is added for 12-16 hours. Cultures are harvested and incorporated counts determined. Mean CPM and standard error of the mean are calculated from triplicate cultures.
Development of MBP-specific T-cell lines in the rat: T-cell lines are selected from LN or SC (spinal cords) of rats immunized with guinea pig myelin basic protein or with MBP peptide (200 μg) in CFA. Supernatants from ConA-stimulated Lewis rat splenocytes are used as the source of IL-2 to expand Ag-stimulated T-cells.
(§2) Proliferation Assay: Proliferative responses were determined as described previously (Zamvil, et al., Nature 317:355, 1985). 1×10^4 T-cells were cultured with 5×10^5 X-irradiated (3,000 rad) PL/J splenic APC in 0.2 ml of culture media in 96 well flat-bottomed microtiter plates (Falcon, 3072). Peptides were added to culture giving the final concentrations indicated. At 48 hours incubation, each well was pulsed with 1 μCi ^3H-thymidine and harvested 16 hours later. The mean c.p.m. thymidine incorporation was calculated for triplicate cultures. Standard deviations from replicate cultures were within 10% mean value. Proliferation assays were performed in 96-well microtiter plates. Briefly, 2×10^4 T-cells and 10^6 irradiated thymocytes/well were incubated with stimulation medium only, Con A, or antigen. The cultures were harvested onto glass fiber filters and TdR uptake was assessed by liquid scintillation. Mean cpm were calculated from triplicate wells. In some experiments, competitor peptides, or anti I-A (OX-6) or anti-I-E antibodies (OX-17) were used to evaluate which MHC molecules were used to restrict the T-cell response, or to determine whether peptides could antagonize stimulation by the native peptide.

[4] = system: EAE; test: Competition with Ala6 and Ala5 for prevention of EAE with MBP (Table 3); format: in vivo, mice
Description: Incidence of EAE was expressed as number of mice with clinical EAE/number of mice immunized. For the induction of EAE, MBP peptide was dissolved in phosphate buffered saline (PBS) and emulsified with complete Freund's adjuvant (CFA) in a 1:1 mixture of PBS and CFA. Mice were injected with 0.2 ml emulsion at the base of the tail. On the same day and 48 h later, pertussis toxin (List Chemicals, Campbell, Calif.) was injected intravenously. Mice were examined daily for signs of EAE. For prevention of EAE, animals were immunized with MBP (0.2 mg), or in a mixture with the competitor peptide (1 mg).

[5] = system: EAE (RAT); test: Prevention of EAE, competitor mixed with native peptide 5:1 in CFA; format: in vivo; conditions: sick/total; competitor plus native peptide 5:1 molar ratio in CFA; native line = native peptide alone
Description: as §1

[6] = system: 87-99 T-cell line; test: Competition assay for T-cell proliferation with native peptide; format: cell-based, Lewis rat; conditions: blocking of proliferation of 87-99 T-cell line when given with native peptide in vitro
Description: The second assay is a competition assay for T-cell proliferation. In this assay, antigen presenting spleen cells are first irradiated and then incubated with native MBP peptide for 2-4 hours. These cells are then washed and further cultured with T-cells reactive to MBP. Various concentrations of candidate peptide analogues are included in cultures for an additional 3 days. Following this incubation period, each culture is pulsed with 1 μCi of [^3H]-thymidine for an additional 12-18 hours. Cultures are then harvested on fiberglass filters and counted as above. Mean CPM and standard error of the mean are calculated from data determined in triplicate cultures. Peptide analogues which inhibit proliferation to approximately 25% at a concentration of 50 μM or greater are suitable for further screening.
as §2, §1

[7] = native MBP peptide 0.2 mg mixed with competitor peptide 1 mg
[8] = peptide alone 0.2 mg in CFA, number with clinical EAE/number immunized

Row | Compound | EAE (RAT) [1] | IC50 [2] | Prolif. ([3]; no key printed) | also measured
1 | CC[C@H](C)[C@H](NC(=O)[C@H](CC(N)=O)NC(=O)[C@H](CCCCN)NC(=O)[C@H](Cc1ccccc1)NC(=O)[C@H](Cc1ccccc1)NC(=O)[C@H](Cc1c[nH]cn1)NC(=O)[C@H](C)N)C(=O)N[C@H](C(=O)N[C@H](C(=O)N1CCC[C@H]1C(=O)N[C@@H](CCCNC(=N)N)C(=O)N[C@H](C(=O)N1CCC[C@H]1C(=O)O)[C@@H](C)O)[C@@H](C)O)C(C)C [Ala 1] | 6/6 | – | – | –
2 | CC[C@H](C)[C@H](NC(=O)[C@H](CC(N)=O)NC(=O)[C@H](CCCCN)NC(=O)[C@H](Cc1ccccc1)NC(=O)[C@H](C)NC(=O)[C@H](Cc1c[nH]cn1)NC(=O)[C@@H](N)C(C)C)C(=O)N[C@H](C(=O)N[C@H](C(=O)N1CCC[C@H]1C(=O)N[C@@H](CCCNC(=N)N)C(=O)N[C@H](C(=O)N1CCC[C@H]1C(=O)O)[C@@H](C)O)[C@@H](C)O)C(C)C [Ala 3] | 6/6 | – | – | –
3 | CC[C@H](C)[C@H](NC(=O)[C@H](CC(N)=O)NC(=O)[C@H](CCCCN)NC(=O)[C@H](Cc1ccccc1)NC(=O)[C@H](Cc1ccccc1)NC(=O)[C@H](Cc1c[nH]cn1)NC(=O)[C@@H](N)C(C)C)C(=O)N[C@H](C(=O)N[C@H](C(=O)N[C@@H](C)C(=O)N[C@@H](CCCNC(=N)N)C(=O)N[C@H](C(=O)N1CCC[C@H]1C(=O)O)[C@@H](C)O)[C@@H](C)O)C(C)C [Ala 10] | incapable of causing EAE and nonencephalitogenic and 0/6 | – | – | –
4 | CC[C@H](C)[C@H](NC(=O)[C@H](CC(N)=O)NC(=O)[C@H](CCCCN)NC(=O)[C@H](Cc1ccccc1)NC(=O)[C@H](Cc1ccccc1)NC(=O)[C@H](Cc1c[nH]cn1)NC(=O)[C@@H](N)C(C)C)C(=O)N[C@H](C(=O)N[C@H](C(=O)N1CCC[C@H]1C(=O)N[C@@H](C)C(=O)N[C@H](C(=O)N1CCC[C@H]1C(=O)O)[C@@H](C)O)[C@@H](C)O)C(C)C [Ala 11] | 4/6 | 20 µM | negative | –
5 | CC[C@H](C)[C@H](NC(=O)[C@H](CC(N)=O)NC(=O)[C@H](CCCCN)NC(=O)[C@H](Cc1ccccc1)NC(=O)[C@H](Cc1ccccc1)NC(=O)[C@H](Cc1c[nH]cn1)NC(=O)[C@@H](N)C(C)C)C(=O)N[C@H](C(=O)N[C@H](C(=O)N1CCC[C@H]1C(=O)N[C@@H](CCCNC(=N)N)C(=O)N[C@@H](C)C(=O)N1CCC[C@H]1C(=O)O)[C@@H](C)O)C(C)C [Ala 12] | 6/6 | – | – | –
6 | CC[C@H](C)[C@H](NC(=O)[C@H](CC(N)=O)NC(=O)[C@H](CCCCN)NC(=O)[C@H](Cc1ccccc1)NC(=O)[C@H](Cc1ccccc1)NC(=O)[C@H](Cc1c[nH]cn1)NC(=O)[C@@H](N)C(C)C)C(=O)N[C@H](C(=O)N[C@@H](C)C(=O)N1CCC[C@H]1C(=O)N[C@@H](CCCNC(=N)N)C(=O)N[C@H](C(=O)N1CCC[C@H]1C(=O)O)[C@@H](C)O)C(C)C [Ala 9] | 1/6 | – | negative | EAE (RAT) ([1]; listed as Ala9): 1/6 and nonencephalitogenic; Prolif. ([3]; no key printed, listed as Ala9): weak stimulators
7 | CC[C@H](C)[C@H](NC(=O)[C@H](CC(N)=O)NC(=O)[C@H](C)NC(=O)[C@H](Cc1ccccc1)NC(=O)[C@H](Cc1ccccc1)NC(=O)[C@H](Cc1c[nH]cn1)NC(=O)[C@@H](N)C(C)C)C(=O)N[C@H](C(=O)N[C@H](C(=O)N1CCC[C@H]1C(=O)N[C@@H](CCCNC(=N)N)C(=O)N[C@H](C(=O)N1CCC[C@H]1C(=O)O)[C@@H](C)O)[C@@H](C)O)C(C)C [Ala 5] | 0/6 | – | negative | EAE (RAT) ([1]; listed as Ala5): incapable of causing EAE; Incidence of EAE [4, 7]: had a preventative effect on EAE; Incidence of EAE ([4]; native MBP peptide 0.2 mg mixed with competitor peptide 1 mg, listed as ala 5): 2/6; Incidence of EAE [4, 8]: 0/6
8 | CC[C@H](C)[C@H](NC(=O)[C@H](CC(N)=O)NC(=O)[C@H](CCCCN)NC(=O)[C@H](Cc1ccccc1)NC(=O)[C@H](Cc1ccccc1)NC(=O)[C@H](C)NC(=O)[C@@H](N)C(C)C)C(=O)N[C@H](C(=O)N[C@H](C(=O)N1CCC[C@H]1C(=O)N[C@@H](CCCNC(=N)N)C(=O)N[C@H](C(=O)N1CCC[C@H]1C(=O)O)[C@@H](C)O)[C@@H](C)O)C(C)C [Ala 2] | 6/6 | – | – | –
9 | CC[C@H](C)[C@H](NC(=O)[C@H](CC(N)=O)NC(=O)[C@H](CCCCN)NC(=O)[C@H](C)NC(=O)[C@H](Cc1ccccc1)NC(=O)[C@H](Cc1c[nH]cn1)NC(=O)[C@@H](N)C(C)C)C(=O)N[C@H](C(=O)N[C@H](C(=O)N1CCC[C@H]1C(=O)N[C@@H](CCCNC(=N)N)C(=O)N[C@H](C(=O)N1CCC[C@H]1C(=O)O)[C@@H](C)O)[C@@H](C)O)C(C)C [Ala 4] | 0/6 | > 200 µM | negative | binding to I-E / MHC (in words) [2]: poor binders; EAE (RAT) ([1]; listed as Ala4): incapable of causing EAE; also recorded: does not cause EAE; Prolif. ([3]; no key printed, listed as Ala4): does not stimulate
10 | CC[C@H](C)[C@H](NC(=O)[C@H](C)NC(=O)[C@H](CCCCN)NC(=O)[C@H](Cc1ccccc1)NC(=O)[C@H](Cc1ccccc1)NC(=O)[C@H](Cc1c[nH]cn1)NC(=O)[C@@H](N)C(C)C)C(=O)N[C@H](C(=O)N[C@H](C(=O)N1CCC[C@H]1C(=O)N[C@@H](CCCNC(=N)N)C(=O)N[C@H](C(=O)N1CCC[C@H]1C(=O)O)[C@@H](C)O)[C@@H](C)O)C(C)C [Ala 6] | 0/21 | > 200 µM | – | EAE (RAT) [5]: 0/6; Comp Assay Prolif (RAT) [6]: plus; Comp Assay Prolif (RAT) ([6]; listed as Ala6): can block proliferation; binding to I-E / MHC (in words) [2]: poor binders; also recorded: poor MHC binder; EAE (RAT) ([1]; listed as Ala6): incapable of causing EAE; Prolif. ([3]; key not given): weakly stimulate; Incidence of EAE [4, 7]: completely prevented the clinical development of EAE; Incidence of EAE ([4]; native MBP peptide 0.2 mg mixed with competitor peptide 1 mg, listed as ala 6): 0/6; Incidence of EAE [4, 8]: 0/6
11 | CC[C@H](C)[C@H](NC(=O)[C@H](CC(N)=O)NC(=O)[C@H](CCCCN)NC(=O)[C@H](Cc1ccccc1)NC(=O)[C@H](Cc1ccccc1)NC(=O)[C@H](Cc1c[nH]cn1)NC(=O)[C@@H](N)C(C)C)C(=O)N[C@H](C(=O)N[C@H](C(=O)N1CCC[C@H]1C(=O)N[C@@H](CCCNC(=N)N)C(=O)N[C@H](C(=O)N[C@@H](C)C(=O)O)[C@@H](C)O)[C@@H](C)O)C(C)C [Ala 13] | 3/6 | 10 µM | – | –
